Results as given in patent publication US6677460B1, “Aromatic carboxylic acid bicyclic sulfur compounds” (Idemitsu Kosan Company, Limited, priority 1993, dated 2004).

Key:
barnyard grass [1] = experiment: Upland soil treatment test (5); assay type: in vivo; conditions: dosage 100 g a.i./hectare, 20th day after treatment; note: ranges in brackets are in %
Procedure: (§1) 90 Parts by weight of the above carrier and 10 parts by weight of each of Compounds obtained in the above Preparation Examples were uniformly pulverized and mixed to obtain herbicides. Further, for Herbicide Comparative Examples, comparative herbicides were prepared by uniformly pulverizing and mixing 90 parts by weight of the above carrier and 10 parts by weight of each of the following Compounds x, y, A, B and C.
(§2) (5) Biological Test (Upland Soil Treatment Test, Herbicide Examples 10-26 and Comparative Example 9)
(§3) Seeds of weeds such as large crabgrass, barnyard grass, green foxtail, cocklebur, velvetleaf and slender amaranth and seeds of corn, wheat and barley were sown in 1/5,000-are Wagner pots filled with upland soil, and covered with upland soil. Then, a predetermined amount of the herbicide prepared in the above (1) was suspended in water and uniformly sprayed onto the soil surface. Thereafter, the plants were grown in the greenhouse, and on 20th day after the treatment, the herbicide was evaluated for herbicidal efficacy.
(§4) The dosage of each herbicide is indicated as an amount of the active ingredient per hectare. Further, air-dried weight were measured, and herbicidal efficacy and the pytotoxicity to corn are shown on the basis of the ratings described below.

cocklebur = experiment: Upland soil treatment test (5); assay type: in vivo; conditions: dosage 100 g a.i./hectare, 20th day after treatment; note: ranges in brackets are in %
Procedure: as §1, §2, §3, §4

green foxtail = experiment: Upland soil treatment test (5); assay type: in vivo; conditions: dosage 100 g a.i./hectare, 20th day after treatment; note: ranges in brackets are in %
Procedure: as §1, §2, §3, §4

large crabgrass = experiment: Upland soil treatment test (5); assay type: in vivo; conditions: dosage 100 g a.i./hectare, 20th day after treatment; note: ranges in brackets are in %
Procedure: as §1, §2, §3, §4

velvetleaf = experiment: Upland soil treatment test (5); assay type: in vivo; conditions: dosage 100 g a.i./hectare, 20th day after treatment; note: ranges in brackets are in %
Procedure: as §1, §2, §3, §4

corn = experiment: Upland soil treatment test (5), phytotoxicity; assay type: in vivo; conditions: dosage 100 g a.i./hectare, 20th day after treatment
Procedure: as §1, §2, §3, §4

barnyard grass [2] = experiment: Submergence soil treatment test (4); assay type: in vivo; conditions: twenty days after treatment; note: ranges in brackets are in %
Procedure: as §1
(§5) (4) Biological Test (Submergence Soil Treatment Test, Herbicide Examples 5˜9 and Comparative Examples 5˜8 and Reference Example 1 and 2)
(§6) 1/15,500-are porcelain pots were filled with paddy field soil, and seeds of barnyard grass and umbrella plant were sown in a surface layer of the soil, and paddy rice at the 2-leaf stage was transplanted. Then, the weeds were treated by uniformly spraying a diluted solution of a predetermined amount of the herbicide prepared in the above (1) onto the water surface at the time of germination of the weeds, and then the pots were allowed to stand in a greenhouse while water was properly sprayed. […] The dosage of each herbicide is shown as an amount of the active ingredient per 10 areas. Further, air-dried weights were measured, and the herbicidal efficacy and the phytotoxicity to the paddy rice were shown as follows.

umbrella plant = experiment: Submergence soil treatment test (4); assay type: in vivo; conditions: twenty days after treatment; note: ranges in brackets are in %
Procedure: as §1, §5, §6

paddy rice = experiment: Submergence soil treatment test (4), phytotoxicity; assay type: in vivo; conditions: twenty days after treatment
Procedure: as §1, §5, §6

slender amaranth = experiment: Upland soil treatment test (5); assay type: in vivo; conditions: dosage 100 g a.i./hectare, 20th day after treatment; note: ranges in brackets are in %
Procedure: as §1, §2, §3, §4

Structure (SMILES) | Herbicidal Efficacy barnyard grass (barnyard grass [1]) | Herbicidal Efficacy cocklebur (cocklebur) | Herbicidal Efficacy green foxtail (green foxtail) | Herbicidal Efficacy large crabgrass (large crabgrass) | Herbicidal Efficacy velvetleaf (velvetleaf) | Phyto-toxicity to corn (corn) | melting point [°C] | Herbicidal Effficacy barnyard grass (barnyard grass [2]; dosage 1 g a.i./10 are) | Herbicidal Effficacy umbrella plant (umbrella plant; dosage 1 g a.i./10 are) | Phytotoxicity to paddy rice (paddy rice; dosage 1 g a.i./10 are) | Herbicidal Efficacy slender amaranth (slender amaranth) | Herbicidal Effficacy barnyard grass (barnyard grass [2]; dosage 3 g a.i./10 are) | Herbicidal Effficacy umbrella plant (umbrella plant; dosage 3 g a.i./10 are) | Phytotoxicity to paddy rice (paddy rice; dosage 3 g a.i./10 are) | Herbicidal Effficacy barnyard grass (barnyard grass [2]; dosage 10 g a.i./10 are) | Herbicidal Effficacy umbrella plant (umbrella plant; dosage 10 g a.i./10 are) | Phytotoxicity to paddy rice (paddy rice; dosage 10 g a.i./10 are)
CCn1ncc(C(=O)c2cc(C)c3c(c2C)C(C)(C)CCS3)c1OS(=O)(=O)CC [Compound 8] | 4 (1-20) | 5 (0) | 4 (1-20) | 5 (0) | 5 (0) | 0 (100) | 164.1 to 165.7 |  |  |  |  |  |  |  |  |  | 
CCCCCCCCS(=O)(=O)Oc1c(C(=O)c2cc(C)c3c(c2C)C(C)(C)CCS3(=O)=O)cnn1CC [Compound 11] | 3 (21-40) | 3 (21-40) | 2 (41-60) | 5 (0) | 5 (0) | 0 (100) |  | 5 (0) | 5 (0) | 0 (100) | 1 (61-80) |  |  |  |  |  | 
CCn1ncc(C(=O)c2cc(C)c3c(c2C)C(C)(C)CCS3(=O)=O)c1OS(C)(=O)=O [Compound 7, 4,4,5,8-tetramethyl-6-(1-ethyl-5-methanesulfonyloxypyrazol-4-yl)carbonylthiochroman-1,1-dioxide] | 5 (0) | 5 (0) | 4 (1-20) | 5 (0) | 5 (0) | 0 (100) | 202.2 to 203.4 |  |  |  | 5 (0) |  |  |  |  |  | 
CCn1ncc(C(=O)c2cc(Cl)c3c(c2Cl)C(C)(C)CCS3)c1O [Compound 3] |  |  |  |  |  |  | 263.7 to 263.9 |  |  |  |  |  |  |  |  |  | 
CCCS(=O)(=O)Oc1c(C(=O)c2cc(C)c3c(c2C)C(C)(C)CCS3(=O)=O)cnn1CC [Compound 9] | 5 (0) | 5 (0) | 5 (0) | 5 (0) | 5 (0) | 0 (100) |  |  |  |  | 5 (0) |  |  |  |  |  | 
CCn1ncc(C(=O)c2cc(C)c3c(c2C)C(C)(C)CCS3)c1OC(=O)c1ccc(Cl)cc1Cl [Compound 23] |  |  |  |  |  |  | 165.2 to 169 |  |  |  |  |  |  |  |  |  | 
CCn1ncc(C(=O)c2cc(C)c3c(c2C)C(C)(C)CCS3(=O)=O)c1OS(=O)(=O)c1ccc([N+](=O)[O-])cc1 [Compound 13] | 3 (21-40) | 5 (0) | 2 (41-60) | 5 (0) | 5 (0) | 0 (100) |  |  |  |  | 2 (41-60) |  |  |  |  |  | 
CCn1ncc(C(=O)c2cc(C)c3c(c2C)C(C)(C)CCS3)c1OCC(C)=O [Compound 24] | 5 (0) | 5 (0) | 2 (41-60) | 5 (0) | 5 (0) | 0 (100) |  |  |  |  | 5 (0) |  |  |  |  |  | 
CCn1ncc(C(=O)c2cc(C)c3c(c2C)C(C)(C)CCS3(=O)=O)c1OC(C)=O [Compound 18, 4,4,5,8-tetramethyl-6-(1-ethyl-5-acetoxypyrazol-4-yl)carbonylthiochroman-1,1-dioxide] | 5 (0) | 5 (0) | 4 (1-20) | 5 (0) | 5 (0) | 0 (100) | 187.7 to 191.4 |  |  |  | 5 (0) |  |  |  |  |  | 
CCCCCCC(=O)Oc1c(C(=O)c2cc(C)c3c(c2C)C(C)(C)CCS3(=O)=O)cnn1CC [Compound 21] | 5 (0) | 5 (0) | 4 (1-20) | 5 (0) | 5 (0) | 0 (100) |  |  |  |  | 5 (0) |  |  |  |  |  | 
CCCCS(=O)(=O)Oc1c(C(=O)c2cc(C)c3c(c2C)C(C)(C)CCS3(=O)=O)cnn1CC [Compound 10] | 5 (0) | 3 (21-40) | 2 (41-60) | 5 (0) | 5 (0) | 0 (100) |  | 5 (0) | 5 (0) | 0 (100) | 5 (0) |  |  |  |  |  | 
CCn1ncc(C(=O)c2cc(C)c3c(c2C)C(C)(C)CCS3(=O)=O)c1OCC(=O)c1ccccc1 [Compound 25] | 2 (41-60) | 5 (0) | 2 (41-60) | 5 (0) | 5 (0) | 0 (100) |  |  |  |  | 5 (0) |  |  |  |  |  | 
CCC(=O)Oc1c(C(=O)c2cc(C)c3c(c2C)C(C)(C)CCS3)cnn1CC [Compound 19] | 5 (0) | 5 (0) | 2 (41-60) | 5 (0) | 5 (0) | 0 (100) | 178 to 179.6 |  |  |  | 5 (0) |  |  |  |  |  | 
CCn1ncc(C(=O)c2cc(C)c3c(c2C)C(C)(C)CCS3(=O)=O)c1OS(=O)(=O)c1ccc(OC)cc1 [Compound 14] | 5 (0) | 5 (0) | 2 (41-60) | 5 (0) | 5 (0) | 0 (100) |  | 5 (0) | 3 (21-40) | 0 (100) | 5 (0) |  |  |  |  |  | 
CCn1ncc(C(=O)c2cc(C)c3c(c2C)C(C)(C)CCS3(=O)=O)c1OS(=O)(=O)c1ccccc1C [Compound 16] | 5 (0) | 5 (0) | 5 (0) | 5 (0) | 5 (0) | 0 (100) |  | 5 (0) | 2 (41-60) | 0 (100) | 5 (0) | 5 (0) | 5 (0) | 0 (100) |  |  | 
CCn1ncc(C(=O)c2cc(C)c3c(c2C)C(=NOC)CCS3(=O)=O)c1O [Comp'd C, reference compound] |  |  |  |  |  |  |  |  |  |  |  | 0 (81-100) | 3 (21-40) | 2 (90-94) | 4 (1-20) | 5 (0) | 5
CCn1ncc(C(=O)c2cc(C)c3c(c2C)C(C)(C)CCS3(=O)=O)c1OS(=O)(=O)c1ccc(C)cc1 [Compound 12] | 5 (0) |  | 1 (61-80) | 5 (0) | 5 (0) | 0 (100) |  |  |  |  | 5 (0) |  |  |  |  |  | 
CCCCC(=O)Oc1c(C(=O)c2cc(C)c3c(c2C)C(C)(C)CCS3(=O)=O)cnn1CC [Compound 20] | 3 (21-40) | 5 (0) | 2 (41-60) | 5 (0) | 5 (0) | 0 (100) |  |  |  |  |  |  |  |  |  |  | 
